This note sets out measurements from patent publication US20100249112A1, “COMBINATION OF CHK AND PARP INHIBITORS FOR THE TREATMENT OF CANCERS” (ASTRAZENECA R&D, priority 2007, published 2010).

For one data set, the system named is NCI-H460dnp53 cell line. The data set can be described thus: MTS cell viability assay, CHK-PARP combination, NCI-H460dnp53. Format: cell-based. On the procedure: (§1) Combination experiments were carried out to assess the ability of a CHK inhibitor, i.e., 5-(3-Fluoro-phenyl)-3-ureido-thiophene-2-carboxylic acid (S)-piperidin-3-ylamide, to sensitize cells to a PARP inhibitor, i.e., 4-[3-(4-Cyclopropanecarbonyl-piperazine-1-carbonyl)-4-fluoro-benzyl]-2H-phthalazin-1-one, using a cell viability endpoint.
(§2) The cell lines used in this study were SW620, which endogenously express mutant p53, and NCI-H460dominant negative p53 (NCI-H460dnp53), which are stably transfected to express dominant negative p53. Cells were seeded in 96-well plates on day 0 and treated with either a single drug or simultaneously with both drugs for 4 days beginning on Day 1.
(§3) For sequential addition, either the CHK inhibitor i.e., 5-(3-Fluoro-phenyl)-3-ureido-thiophene-2-carboxylic acid (S)-piperidin-3-ylamide, or the PARP inhibitor, i.e., 4-[3-(4-Cyclopropanecarbonyl-piperazine-1-carbonyl)-4-fluoro-benzyl]-2H-phthalazin-1-one, were added to cells for 24 hours beginning on Day 1, followed by addition of the other drug on Day 2, and exposure to both drugs continued for an additional 72 hours. […] Cells were dosed with the PARP inhibitor to generate a full dose-response curve. See Table 1 for an example of the drug concentrations used in each cell line.
(§4) Cell viability was measured on day 5 using an MTS colorimetric assay. Dose (concentration of drug used, uM) vs. Fraction unaffected (Fu) for PARP alone versus in combination were plotted. Replicate points for the constant concentration of the CHK inhibitor were also plotted. Data were analyzed by comparing the dose-response curve of the single agent to that for the combination.
For orientation: Tetrazolium assays rely on reduction of a dye to a coloured formazan, in cell work by metabolically active cells.

A further data set deals with SW620 cell line. Briefly: MTS cell viability assay, CHK-PARP combination, SW620. Format: cell-based. The settings on record: for IC50: Homo sapiens, SW-620, 96 h. On the procedure: as §1, §2, §3, §4
The next data set relates to SW 620 tumors. The data set can be described thus: SW 620 tumor growth inhibition in female nude mice. Format: in vivo. The note with it: 3 weeks. On the procedure:
(§5) SW 620 tumors were staged in female nude mice as described in Chapter 31 “In vivo Tumor response End Points” by B. A. Teicher (see “Tumor Models in Cancer Research” edited by Beverly A. Teicher, p596. Published by Humana Press Inc. 2002). Treatment started when tumors reached ˜170 mm^3. There were 6 groups in this study with n=10/group. PARP inhibitor 4-[3-(4-Cyclopropanecarbonyl-piperazine-1-carbonyl)-4-fluoro-benzyl]-2H-phthalazin-1-one was given 5 times weekly at 50 mg/kg PO. CHK inhibitor 5-(3-Fluoro-phenyl)-3-ureido-thiophene-2-carboxylic acid (S)-piperidin-3-ylamide was given at 12.5 mg/kg and 25 mg/kg twice weekly IV. The combination groups received PARP inhibitor at 50 mg/kg (5 times a week) and, 2 hours later, the CHK inhibitor at 12.5 or 25 mg/kg (twice a week). Mice received 3 weeks of treatment. Overall, treatment was well tolerated except in one case where a mouse was receiving a CHK inhibitor in the 25 mg/kg group it was found dead prior to study endpoint.

Data set [1] in a line: Tolerability / max weight loss in the SW 620 tumor study. The class given is in vivo. The settings on record: for Max weight loss: 3 weeks, female nude mice. Here is the method: as §5

Where two headings read alike, the source gives them in different places.

For `NC(=O)Nc1cc(-c2cccc(F)c2)sc1C(=O)N[C@H]1CCCNC1` [CHK inhibitor, 5-(3-Fluoro-phenyl)-3-ureido-thiophene-2-carboxylic acid (S)-piperidin-3-ylamide], the “Activity of CHK inhibitor as a single agent at the constant concentration used” value was “little or no activity” in the data set with NCI-H460dnp53 cell line (0.33 uM, determined previously) and “little or no activity” with SW620 cell line (0.28 uM, determined previously). Further, the “Tumor Growth Inhibition %” value amounted to 15% with SW 620 tumors (12.5 mg/kg twice weekly IV, p > 0.05) and 22% in the data set with SW 620 tumors (25 mg/kg twice weekly IV, p > 0.05). The figures for the Max weight loss in data set [1] (12.5 mg/kg twice weekly IV) and in data set [1] (25 mg/kg twice weekly IV) were 2% and 1%, respectively. Moreover, the “Death prior to study endpoint” value in data set [1] (25 mg/kg group, one mouse) is “found dead”.

A word on the IC50: it is the concentration at which inhibition is half-maximal. `O=C(c1cc(Cc2n[nH]c(=O)c3ccccc23)ccc1F)N1CCN(C(=O)C2CC2)CC1` [PARP inhibitor, 4-[3-(4-Cyclopropanecarbonyl-piperazine-1-carbonyl)-4-fluoro-benzyl]-2H-phthalazin-1-one]: the IC50 in the data set on NCI-H460dnp53 cell line (96 h, constant CHK inhibitor 0.33 uM, simultaneous addition, 4 days, 3 experiments, read-out: IC50 of PARP inhibitor, CHK inhibitor + PARP inhibitor simultaneous) amounted to 1.9 µM; with NCI-H460dnp53 cell line (96 h, single agent, 4 days exposure, representative, 3 experiments, read-out: IC50 of PARP inhibitor alone) it was 17.6 µM; in the data set with NCI-H460dnp53 cell line (CHK inhibitor 24 hours, then both drugs for additional 72 hours, 1 experiment, read-out: IC50 of PARP inhibitor, CHK inhibitor followed by PARP inhibitor) it was 4.1 µM; in the data set on NCI-H460dnp53 cell line (PARP inhibitor 24 hours, then both drugs for additional 72 hours, 1 experiment, read-out: IC50 of PARP inhibitor, PARP inhibitor followed by CHK inhibitor), 3.6 µM; with SW620 cell line (constant CHK inhibitor 0.28 uM, simultaneous, 4 days, from 2 independent experiments, not directly comparable, read-out: IC50 of PARP inhibitor, CHK inhibitor + PARP inhibitor simultaneous), 5.8 µM; in the data set with SW620 cell line (single agent, 4 days exposure, representative, 3 experiments, read-out: IC50 of PARP inhibitor alone), 19.4 µM. Moreover, the “Tumor Growth Inhibition %” value in the data set on SW 620 tumors (50 mg/kg PO 5 times weekly, p > 0.1) turned out to be 22%.
